Test [1] has as its system aged C57BL/6J mice. Briefly: Intraperitoneal insulin tolerance test (IpITT). The format is in vivo, mouse. Conditions: 107 weeks of age, versus SD; FIGS. 4J-4K. The protocol:
The male C57BL/6J mice, aged 107 weeks, were fasted for […] while having free access to water, and their body weights were measured before the test started. The test was conducted by fasting the mice for 5 hours, and then injecting them with 1.25 U/kg of human recombinant insulin. Blood droplets were collected from the tail vein just prior to the insulin injection (time 0; baseline), and at 15, 30, 60, and 90 minutes following the injection. Blood glucose levels were measured using a blood glucose meter (Accu-Chek Guide; Roche, DE).

The target in another test is T1, SIRT1 (Homo sapiens, UniProt Q96EB6).
T1 construct: endogenous in cells; host or cells: U2OS cells; IMR90 cells
T1 sequence (Q96EB6 1-747): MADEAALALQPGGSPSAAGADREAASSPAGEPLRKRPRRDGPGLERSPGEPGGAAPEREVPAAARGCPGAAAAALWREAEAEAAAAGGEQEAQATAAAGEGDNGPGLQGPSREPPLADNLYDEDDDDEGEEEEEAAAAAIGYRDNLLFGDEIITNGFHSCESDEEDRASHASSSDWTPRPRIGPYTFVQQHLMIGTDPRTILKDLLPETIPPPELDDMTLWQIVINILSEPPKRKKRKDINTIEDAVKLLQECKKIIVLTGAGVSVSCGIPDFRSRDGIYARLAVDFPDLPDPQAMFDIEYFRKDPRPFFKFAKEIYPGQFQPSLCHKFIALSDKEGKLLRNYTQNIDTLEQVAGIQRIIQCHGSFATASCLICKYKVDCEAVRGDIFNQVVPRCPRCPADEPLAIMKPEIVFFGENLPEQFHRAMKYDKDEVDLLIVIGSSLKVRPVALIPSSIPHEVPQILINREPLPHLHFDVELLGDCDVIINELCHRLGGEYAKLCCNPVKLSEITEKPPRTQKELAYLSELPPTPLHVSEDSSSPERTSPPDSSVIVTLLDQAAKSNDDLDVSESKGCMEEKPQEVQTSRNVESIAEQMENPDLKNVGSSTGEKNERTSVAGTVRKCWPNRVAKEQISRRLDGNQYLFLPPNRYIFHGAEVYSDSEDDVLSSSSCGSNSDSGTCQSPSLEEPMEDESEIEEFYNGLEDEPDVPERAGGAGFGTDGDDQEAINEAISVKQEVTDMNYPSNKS
Put plainly: Acetylation of p53 (K382) via UV irradiation, western blot, IMR90 cells. Conditions: FIGS. 2G-2H. In kind it is cell-based. The protocol: U2OS cells (1.2×10^5 cells/dish) or IMR90 cells (3.0×10^5 cells/dish) were seeded into a 3.5 cm culture dish, and incubated with 0, 10, 25, 50, or 100 μM PN6 for 16 hours, before subjected to UVB irradiation at 7.5 mJ/m^2 (for U2OS cells) or 5.0 mJ/m^2 (for IMR90 cells) for 4 hours.
Cells were harvested with a 1.25× Laemmli buffer and lysed in RIPA lysis buffer containing 1% of Triton X-100 and a protease inhibitor cocktail, and total protein concentrations were measured with a protein assay kit. Proteins in the samples of the lysates with the same amounts of total protein were separated by sodium dodecyl sulfate polyacrylamide gel electrophoresis (SDS-PAGE) (10% polyacrylamide gels) and analyzed by immunoblotting. Primary antibodies against p53ac (K382) (1:1,000), p21 (1:1,000), and 3-actin (1:200,000) were applied to detect the corresponding proteins. Horseradish peroxidase (HRP)-conjugated secondary antibodies against mouse IgG were then incubated with the membranes, and proteins were visualized by chemiluminescence according to the manufacturer's instructions. Protein quantification was performed by software.
A general note: Immunoblotting shows a protein as a band on a membrane.

The target of another test is T2, SIR2/SIRT1 (Homo sapiens, UniProt Q96EB6).
T2 construct: purchased Enzo Life Sciences, Inc
T2 sequence (Q96EB6 2-747 limits assumed): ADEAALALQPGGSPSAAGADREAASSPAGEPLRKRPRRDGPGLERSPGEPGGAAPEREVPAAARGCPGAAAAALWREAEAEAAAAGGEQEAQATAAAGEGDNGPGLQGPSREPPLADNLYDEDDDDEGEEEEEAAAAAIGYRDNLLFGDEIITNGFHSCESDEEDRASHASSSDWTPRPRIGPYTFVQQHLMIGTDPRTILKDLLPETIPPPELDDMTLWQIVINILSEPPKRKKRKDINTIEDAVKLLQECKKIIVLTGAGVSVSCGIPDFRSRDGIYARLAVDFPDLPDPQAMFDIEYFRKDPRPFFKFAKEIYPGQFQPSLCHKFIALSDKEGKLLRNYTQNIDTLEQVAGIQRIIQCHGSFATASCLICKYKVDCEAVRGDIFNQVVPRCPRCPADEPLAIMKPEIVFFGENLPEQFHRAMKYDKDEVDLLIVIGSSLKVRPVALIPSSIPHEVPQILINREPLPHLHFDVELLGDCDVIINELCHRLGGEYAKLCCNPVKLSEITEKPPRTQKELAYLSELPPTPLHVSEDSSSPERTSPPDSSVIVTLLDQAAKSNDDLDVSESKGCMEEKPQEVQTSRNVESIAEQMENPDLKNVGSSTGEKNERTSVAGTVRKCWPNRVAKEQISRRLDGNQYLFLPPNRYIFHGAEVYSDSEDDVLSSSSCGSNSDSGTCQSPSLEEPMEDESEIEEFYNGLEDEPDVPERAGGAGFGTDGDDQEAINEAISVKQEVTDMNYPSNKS
Put plainly: SIR2/SIRT1 activity assay (SIRT1 fluorometric drug discovery kit). Conditions: SIRT1 activity assay kit; FIG. 2K. In kind it is biochemical. The protocol: The activity of SIR2/SIRT1 was assessed using a SIRT1 fluorometric drug discovery kit (Enzo Life Sciences, Inc.), in accordance with the manufacturer's instructions. Fluorescence was excited at 360 nm and emitted at 460 nm.

For test [2], the system named is aged C57BL/6J mice. Briefly: Rearing behavior. The format is in vivo, mouse. Conditions: long-term (111 weeks of age), old-aged mice; FIG. 4D. The protocol: The rearing behavior of the male C57BL/6J mice fed a standard rodent chow with or without 50 mg/kg PN6 for 22 weeks (at 72 weeks of age; mid-term) or for 61 weeks (at 111 weeks of age; long-term) was analyzed using the OxyletPro System, in which the mice were housed individually in metabolic cages that were equipped with infrared light beam frames surrounding them. Mid-term: SD, n=16; PN6, n=8; long-term: SD, n=12; PN6, n=8.

Regarding `CCC(CC[C@@H](C)C1CCC2C3CC(=O)[C@H]4C[C@@H](O)CC[C@]4(C)C3CC[C@@]21C)C(C)C` (stereo in doubt) [PN6, (24S)-3β-hydroxy-5α-stigmastan-6-one], the insulin sensitivity entry in the test on aged C57BL/6J mice [1] was “significantly higher”. At SIRT1, the “SIRT1 activity / acetylation of P53 at K382” value is on record as “increased SIRT1 activity to reverse acetylation of P53 at K382”. On SIR2/SIRT1, the SIRT1 activity entry was “directly increase the SIRT1 activity”. For the same molecule, the “rearing behavior (exploratory activity)” value in the test on aged C57BL/6J mice [2] was “increase the exploratory activity”.

The values are drawn from US20250009763A1, “METHODS FOR EXTENDING LIFESPAN AND/OR DELAYING AGING” (priority 2023, published 2025).
